Data as given in PMC7421780 (Future Medicinal Chemistry, 2020).
Values after ≈ are worked out from the molar mass of the structure shown.

Tests used:
Assay in all cases: microbe, parasite or virus in culture
Format in all cases: cell-based
Details in all cases: Mycobacterium tuberculosis
[1] = system: RIF-R1 (Mtb strain resistant to rifampicin)
[2] = system: RIF-R2 (Mtb strain resistant to rifampicin)
[3] = system: INH-R1 (Mtb strain resistant to isoniazid)
[4] = system: FQ-R1 (Mtb strain resistant to fluoroquinolone)
[5] = system: INH-R2 (Mtb strain resistant to isoniazid)

SMILES | IC50 [1] | IC90 [1] | IC50 [2] | IC90 [2] | MIC [2] | IC50 [3] | IC90 [3] | MIC [3] | IC50 [4] | IC90 [4] | MIC [4] | IC50 [5] | IC90 [5] | MIC [1] | MIC [5]
C[C@H]1COc2c(N3CCN(C)CC3)c(F)cc3c(=O)c(C(=O)O)cn1c23 [Compound C3, Levofloxacin, reference compound] | 0.59 µM | 0.91 µM | 0.6 µM | 1.2 µM | 1.1 µM (≈ 0.398 µg/mL) | 0.64 µM | 1.4 µM | 1.2 µM (≈ 0.434 µg/mL) | 12 µM | 22 µM | 20 µM (≈ 7.23 µg/mL) | 0.84 µM | 1.4 µM |  | 
O=C(C[n+]1cn(Cc2cccc(Cn3c[n+](CC(=O)c4ccc([N+](=O)[O-])cc4)c4ccccc43)n2)c2ccccc21)c1ccc([N+](=O)[O-])cc1.[Br-].[Br-] [Compound 6f, 1,1′-(pyridine-2,6-diylbis(methylene))bis(3-(2-(4-nitrophenyl)-2-oxoethyl)-1H-benzo[d]imidazol-3-ium) bromide] | 15 µM | 24 µM | 17 µM | 31 µM | 30 µM | 13 µM | 21 µM | 24 µM | 18 µM | 38 µM | 38 µM | 13 µM | 22 µM | 25 µM | 25 µM
NNC(=O)c1ccncc1 [Isoniazid, reference compound] | 0.15 µM | 0.21 µM | 0.54 µM | 0.6 µM | 0.62 µM (≈ 0.085 µg/mL) | > 200 µM | > 200 µM | > 200 µM | 0.36 µM | 0.47 µM | 0.35 µM (≈ 0.048 µg/mL) | > 200 µM | > 200 µM | 0.17 µM (≈ 0.0233 µg/mL) | > 200 µM
O=C(C[n+]1cn(Cc2cccc(Cn3c[n+](CC(=O)c4ccccc4)c4ccccc43)n2)c2ccccc21)c1ccccc1.[Br-].[Br-] [Compound 6c, 1,1′-(pyridine-2,6-diylbis(methylene))bis(3-(2-oxo-2-phenylethyl)-1H-benzo[d]imidazol-3-ium) bromide] | 24 µM | 110 µM | 44 µM | 120 µM | 100 µM | 42 µM | 170 µM | 120 µM | 40 µM | > 200 µM | 200 µM | 42 µM | 150 µM | 87 µM | 110 µM
O=[N+]([O-])c1cn(Cc2cccc(Cn3cnc([N+](=O)[O-])c3)n2)cn1 [Compound 2b, 2,6-bis((4-nitro-1H-imidazol-1-yl)methyl)pyridine] | 60 µM | 160 µM | 38 µM | 61 µM | 68 µM (≈ 22.4 µg/mL) | 68 µM | 90 µM | 98 µM (≈ 32.3 µg/mL) | 66 µM | 92 µM | 102 µM (≈ 33.6 µg/mL) | 24 µM | 28 µM | 111 µM (≈ 36.5 µg/mL) | 28 µM (≈ 9.22 µg/mL)
CO[C@H]1/C=C/O[C@@]2(C)Oc3c(C)c(O)c4c(O)c(c(/C=N/N5CCN(C)CC5)c(O)c4c3C2=O)NC(=O)/C(C)=C\C=C\[C@H](C)[C@H](O)[C@@H](C)[C@@H](O)[C@@H](C)[C@H](OC(C)=O)[C@@H]1C [Rifampicin, reference compound] | 1.2 µM | 2.3 µM | > 50 µM | > 50 µM | > 50 µM |  | 0.022 µM |  | 0.013 µM | 0.039 µM | 0.027 µM (≈ 0.0222 µg/mL) | 0.0047 µM | 0.012 µM |  | 0.065 µM (≈ 0.0535 µg/mL)
O=C(C[n+]1ccn(Cc2cccc(Cn3cc[n+](CC(=O)c4ccc([N+](=O)[O-])cc4)c3)n2)c1)c1ccc([N+](=O)[O-])cc1.[Br-].[Br-] [Compound 4f, 1,1′-(pyridine-2,6-diylbis(methylene))bis(3-(2-(4-nitrophenyl)-2-oxoethyl)-1H-imidazol-3-ium) bromide] | 35 µM | 100 µM | 40 µM | 120 µM | > 200 µM | 46 µM | 52 µM | 55 µM | 49 µM | 91 µM | 87 µM | 39 µM | 75 µM | 67 µM | 65 µM
c1cc(Cn2cnc3ccccc32)nc(Cn2cnc3ccccc32)c1 [Compound 5, 2,6-bis((1H-benzo[d]imidazol-1-yl)methyl)pyridine] | > 50 µM | > 50 µM | > 50 µM | > 50 µM | > 50 µM | > 50 µM | > 50 µM | > 50 µM | > 50 µM | > 50 µM | > 50 µM | > 50 µM | > 50 µM | > 50 µM | > 50 µM
